Assay results published in ChEMBL document CHEMBL5729239, “Aryl, heteroaryl, and heterocyclic compounds for treatment of immune and inflammatory disorders” (2022).
One block for each compound: values may come before it.

Molecular target: Complement factor D (Homo sapiens, UniProt P00746)
Test: Human Factor D Assay: Human Factor D (purified from human serum, Complement Technology, Inc.) at 80 nM final concentration is incubated with test compound at various concentrations for 5 min at room temperature in 50 mM Tris, 1M NaCl, pH 7.5. A synthetic substrate Z-L-Lys-SBzl and DTNB (Ellman's reagent) are added to final concentrations of 100 μM each. […] IC50 values are calculated by nonlinear regression of complement Factor D reaction rates as a function of test compound concentration.

Complement factor D, sequence (P00746 whole entry): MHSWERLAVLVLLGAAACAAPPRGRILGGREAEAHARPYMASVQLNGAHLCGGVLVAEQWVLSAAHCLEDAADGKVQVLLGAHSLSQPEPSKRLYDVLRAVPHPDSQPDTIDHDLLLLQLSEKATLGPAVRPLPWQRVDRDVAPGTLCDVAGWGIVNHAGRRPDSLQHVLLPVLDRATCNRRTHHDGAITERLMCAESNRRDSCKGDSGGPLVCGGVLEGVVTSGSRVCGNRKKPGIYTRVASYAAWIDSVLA

Compound: CC(=O)c1nn(CC(=O)N2C[C@H](F)C[C@H]2C(=O)NCCC(C)(C)C)c2ccc(-c3cnc(C)nc3)cc12
IC50: < 1000 nM

IC50: < 1000 nM
Compound: NC(=O)c1cc(-c2ccco2)n(CC(=O)N2C[C@H](F)C[C@H]2C(=O)Nc2cccc(Br)n2)n1

Compound: CC(=O)c1nn(CC(=O)N2C[C@H](F)C[C@H]2C(=O)NCCOC(F)(F)F)c2ccc(-c3cnc(C)nc3)cc12
IC50: < 1000 nM

Compound: CC(=O)c1nn(CC(=O)N2C[C@H](F)C[C@H]2C(=O)Nc2cccc(-c3ccccc3Cl)c2F)c2ccc(N3C[C@H]4CCCC[C@H]4C3)cc12
IC50: < 1000 nM

Compound: Cc1cccc(CC(O)[C@@H]2C[C@@H](F)CN2C(=O)Cn2cc(C(N)=O)c3cc(-c4cnc5cc(C)nn5c4)ccc32)n1 (stereo partly specified)
IC50: > 10000 nM

Compound: CC(=O)c1nn(CC(=O)N2C[C@H](F)C[C@H]2C(=O)O)c2ccc(-c3cnc(C)nc3)cc12
IC50: > 10000 nM
